Like-named read-outs stand apart in the source and are kept apart here.
What was measured:
NF-κB = NF-κB assay: THP1-NF-κB-LUC cells, LPS-stimulated secreted luciferase; type: cell-based; settings: THP1-NF-κB-LUC cells, read-out: IC50 (NF-κB assay)
How it was run: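 THP1-NF-κB-LUC cells (25k/well) were pretreated with compounds for 2 h, then stimulated with LPS (10 ng/mL) for 18 h. Secreted luciferase was measured and normalized to vehicle, and IC50 was fitted from the concentration series.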

TNF release = test: TNF assay: TNF release from LPS-stimulated human PBMCs (TNF ELISA); type: cell-based; settings: PBMC, read-out: IC50 (TNF assay)
How it was run: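 Human PBMCs at 10k/well pretreated with compound dilutions 2 h, then stimulated with LPS (10 ng/mL) for 18 h. TNF in supernatants quantified by ELISA; IC50 for inhibition of TNF release fitted from concentration–response.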

[1] = LPS-stimulated human PBMCs, TNF ELISA
[2] = compounds 2 hours before LPS (10 ng/mL) for 18 hours, secreted luciferase
[3] = human PBMCs, compounds 2 hours before LPS (10 ng/ml) for 18 hours, supernatant TNF ELISA

Row | IC50 (NF-κB; LPS-stimulated) [nM] | IC50 (TNF release; [1]) [µM] | IC50 (NF-κB; [2]) [nM] | IC50 (TNF release; [3]) [µM] | Structure (SMILES)
1 | 1000 to 10000 | 1 to 10 | – | – | COCC[S+]([O-])c1sc(-c2ccccc2)nc1S(=O)(=O)c1ccc(Cl)cc1 (stereo not shown) [BC19526]
2 | 1000 to 10000 | 1 to 10 | – | – | COCCS(=O)(=O)c1sc(-c2cccc(F)c2)nc1S(=O)(=O)c1ccc(Cl)cc1 [BC19527]
3 | 1000 to 10000 | 0.1 to 1 | – | – | C[S+]([O-])c1sc(-c2ccc(Cl)cc2)nc1S(=O)(=O)c1ccc(Cl)cc1 (stereo not shown) [BC19528]
4 | > 10000 | 1 to 10 | – | – | CC(C)CS(=O)(=O)c1sc(-c2ccc(Cl)cc2)nc1S(=O)(=O)c1ccc(Cl)cc1 [BC19529]
5 | 1000 to 10000 | 1 to 10 | – | – | O=S(=O)(CC1CC1)c1sc(-c2ccc(Cl)cc2)nc1S(=O)(=O)c1ccc(Cl)cc1 [BC19530]
6 | 1000 to 10000 | 0.1 to 1 | – | – | CCC[S+]([O-])c1sc(-c2cccc(F)c2)nc1S(=O)(=O)c1ccc(Cl)cc1 (stereo not shown) [BC19531]
7 | > 10000 | > 10 | – | – | O=S(=O)(c1ccc(Cl)cc1)c1nc(-c2cccc(F)c2)sc1[S+]([O-])C1CCCCC1 (stereo not shown) [BC19532]
8 | 1000 to 10000 | 1 to 10 | – | – | CCC[S+]([O-])c1sc(-c2ccc(Cl)cc2)nc1S(=O)(=O)c1ccc(Cl)cc1 (stereo not shown) [BC19533]
9 | 1000 to 10000 | 1 to 10 | – | – | CS(=O)(=O)c1sc(-c2ccc(Cl)cc2)nc1S(=O)(=O)c1ccc(F)cc1 [BC19534]
10 | 1000 to 10000 | 1 to 10 | – | – | CCC[S+]([O-])c1sc(-c2ccc(Cl)cc2)nc1S(=O)(=O)c1ccc(F)cc1 (stereo not shown) [BC19535]
11 | 1000 to 10000 | 0.1 to 1 | – | – | CCCS(=O)(=O)c1sc(-c2ccc(Cl)cc2)nc1S(=O)(=O)c1ccc(F)cc1 [BC19536]
12 | > 10000 | > 10 | – | – | CC(C)[S+]([O-])c1sc(-c2ccc(Cl)cc2)nc1S(=O)(=O)c1ccc(F)cc1 (stereo not shown) [BC19537]
13 | 1000 to 10000 | 1 to 10 | – | – | CC(C)S(=O)(=O)c1sc(-c2ccc(Cl)cc2)nc1S(=O)(=O)c1ccc(F)cc1 [BC19538]
14 | 1000 to 10000 | 1 to 10 | – | – | O=S(=O)(CC1CC1)c1sc(-c2ccc(Cl)cc2)nc1S(=O)(=O)c1ccc(F)cc1 [BC19539]
15 | 1000 to 10000 | 1 to 10 | – | – | COCC[S+]([O-])c1sc(-c2ccc(Cl)cc2)nc1S(=O)(=O)c1ccc(F)cc1 (stereo not shown) [BC19540]
16 | 1000 to 10000 | 1 to 10 | – | – | COCCS(=O)(=O)c1sc(-c2ccc(Cl)cc2)nc1S(=O)(=O)c1ccc(F)cc1 [BC19541]
17 | > 10000 | > 10 | – | – | O=S1(=O)CCn2c(-c3ccccc3)nc(S(=O)(=O)c3ccc(F)cc3)c21 [BC19542]
18 | 100 to 1000 | < 0.1 | – | – | Cc1ccc(S(=O)(=O)c2nc(S(=O)(=O)C(C)C)sc2S(=O)(=O)C(C)C)cc1 [BC19543]
19 | – | – | < 100 | > 10 | CCS(=O)(=O)c1cc2c(c(S(=O)(=O)Nc3ccc(C)c(Cl)c3)c1)OCC(=O)N2 [BC19544]
20 | – | – | < 100 | > 10 | CCS(=O)(=O)c1cc2c(c(S(=O)(=O)Nc3ccc(F)cc3F)c1)OCC(=O)N2 [BC19545]
21 | – | – | < 100 | > 10 | CCS(=O)(=O)c1cc2c(c(S(=O)(=O)Nc3ccc(C)cc3)c1)OCC(=O)N2 [BC19546]
22 | – | – | 100 to 1000 | > 10 | CCS(=O)(=O)c1cc2c(c(S(=O)(=O)Nc3ccc(OC)c(Cl)c3)c1)OCC(=O)N2 [BC19547]

Row | IC50 (NF-κB; LPS-stimulated) [nM] | IC50 (TNF release; [1]) [µM] | IC50 (NF-κB; [2]) [nM] | IC50 (TNF release; [3]) [µM] | Structure (SMILES)
23 | – | – | < 100 | > 10 | CCS(=O)(=O)c1cc2c(c(S(=O)(=O)Nc3ccc(C#N)cc3)c1)OCC(=O)N2 [BC19548]
24 | 1000 to 10000 | > 10 | – | – | O=C1NCCOc2c1cc(Br)cc2S(=O)(=O)Nc1ccc(F)cc1 [BC19549]
25 | < 100 | > 10 | – | – | O=C1NCCOc2c1cc(Br)cc2S(=O)(=O)Nc1ccc(OC(F)(F)F)cc1 [BC19550]
26 | 100 to 1000 | > 10 | – | – | O=C1NCCOc2c1cc(Br)cc2S(=O)(=O)Nc1ccc(F)c(F)c1 [BC19551]
27 | 100 to 1000 | > 10 | – | – | Cc1ccc(NS(=O)(=O)c2cc(Br)cc3c2OCCNC3=O)cc1F [BC19552]
28 | 1000 to 10000 | > 10 | – | – | O=C1NCCOc2c1cc(Br)cc2S(=O)(=O)Nc1ccccc1 [BC19553]
29 | < 100 | > 10 | – | – | COCCCNS(=O)(=O)c1ccc2nc(-c3ccc(F)cc3)c(-c3ccc(F)cc3)nc2c1 [BC19554]
30 | < 100 | 1 to 10 | – | – | CN(C)CCNS(=O)(=O)c1ccc2nc(-c3ccc(F)cc3)c(-c3ccc(F)cc3)nc2c1 [BC19555]
31 | 100 to 1000 | > 10 | – | – | CCNS(=O)(=O)c1ccc2nc(-c3ccc(F)cc3)c(-c3ccc(F)cc3)nc2c1 [BC19556]
32 | < 100 | > 10 | – | – | O=S(=O)(NCc1cccnc1)c1ccc2nc(-c3ccc(F)cc3)c(-c3ccc(F)cc3)nc2c1 [BC19557]
33 | 100 to 1000 | > 10 | – | – | O=S(=O)(NCc1ccncc1)c1ccc2nc(-c3ccc(F)cc3)c(-c3ccc(F)cc3)nc2c1 [BC19558]
34 | < 100 | > 10 | – | – | O=S(=O)(NCc1ccccn1)c1ccc2nc(-c3ccc(F)cc3)c(-c3ccc(F)cc3)nc2c1 [BC19559]
35 | < 100 | > 10 | – | – | O=C1CCCN1CCCNS(=O)(=O)c1ccc2nc(-c3ccc(F)cc3)c(-c3ccc(F)cc3)nc2c1 [BC19560]
36 | 100 to 1000 | > 10 | – | – | Cc1ccc(-c2nc3ccc(S(=O)(=O)NCCCN4CCN(C)CC4)cc3nc2-c2ccc(C)cc2)cc1 [BC19561]
37 | 100 to 1000 | 1 to 10 | – | – | CN(C)CCCNS(=O)(=O)c1ccc2nc(-c3ccc(F)cc3)c(-c3ccc(F)cc3)nc2c1 [BC19562]
38 | < 100 | > 10 | – | – | CCNC(=O)Nc1ccc2nc(-c3ccc(F)cc3)c(-c3ccc(F)cc3)nc2c1 [BC19563]
39 | < 100 | 1 to 10 | – | – | CN(C)CCNC(=O)Nc1ccc2nc(-c3ccc(F)cc3)c(-c3ccc(F)cc3)nc2c1 [BC19564]
40 | < 100 | > 10 | – | – | COCCNC(=O)Nc1ccc2nc(-c3ccc(F)cc3)c(-c3ccc(F)cc3)nc2c1 [BC19565]
41 | < 100 | > 10 | – | – | O=C(NCCO)Nc1ccc2nc(-c3ccc(F)cc3)c(-c3ccc(F)cc3)nc2c1 [BC19566]
42 | 100 to 1000 | 1 to 10 | – | – | O=C(NCCN1CCOCC1)Nc1ccc2nc(-c3ccc(F)cc3)c(-c3ccc(F)cc3)nc2c1 [BC19567]
43 | 100 to 1000 | > 10 | – | – | O=C(Nc1ccc2nc(-c3ccc(F)cc3)c(-c3ccc(F)cc3)nc2c1)NC1CC1 [BC19568]
44 | 100 to 1000 | > 10 | – | – | O=C(NCC1CC1)Nc1ccc2nc(-c3ccc(F)cc3)c(-c3ccc(F)cc3)nc2c1 [BC19569]

Row | IC50 (NF-κB; LPS-stimulated) [nM] | IC50 (TNF release; [1]) [µM] | IC50 (NF-κB; [2]) [nM] | IC50 (TNF release; [3]) [µM] | Structure (SMILES)
45 | 100 to 1000 | > 10 | – | – | O=C(NCc1ccccn1)Nc1ccc2nc(-c3ccc(F)cc3)c(-c3ccc(F)cc3)nc2c1 [BC19570]
46 | 100 to 1000 | 1 to 10 | – | – | O=C(NCc1cccnc1)Nc1ccc2nc(-c3ccc(F)cc3)c(-c3ccc(F)cc3)nc2c1 [BC19571]
47 | 100 to 1000 | > 10 | – | – | O=C(NCc1ccncc1)Nc1ccc2nc(-c3ccc(F)cc3)c(-c3ccc(F)cc3)nc2c1 [BC19572]
48 | 100 to 1000 | 0.1 to 1 | – | – | CN(C)CCCNC(=O)Nc1ccc2nc(-c3ccc(F)cc3)c(-c3ccc(F)cc3)nc2c1 [BC19573]
49 | 100 to 1000 | > 10 | – | – | COCCCNC(=O)Nc1ccc2nc(-c3ccc(F)cc3)c(-c3ccc(F)cc3)nc2c1 [BC19574]
50 | 100 to 1000 | > 10 | – | – | O=C(NCCCO)Nc1ccc2nc(-c3ccc(F)cc3)c(-c3ccc(F)cc3)nc2c1 [BC19575]
51 | 100 to 1000 | > 10 | – | – | O=C(NCCCN1CCOCC1)Nc1ccc2nc(-c3ccc(F)cc3)c(-c3ccc(F)cc3)nc2c1 [BC19576]
52 | 100 to 1000 | > 10 | – | – | CN1CCN(Cc2ccc3nc(-c4ccc(F)cc4)c(-c4ccc(F)cc4)nc3c2)CC1 [BC19577]
53 | > 10000 | > 10 | – | – | CN1CCN(C(=O)c2ccc3nc(-c4ccc(F)cc4)c(Nc4ccc(F)cc4)nc3c2)CC1 [BC19578]
54 | – | – | > 10000 | > 10 | O=c1[nH]ccc2cc(S(=O)(=O)c3ccccc3)ccc12 [BC19579]
55 | – | – | > 10000 | > 10 | O=c1[nH]ccc2cc(Sc3ccc(F)cc3)ccc12 [BC19580]
56 | > 10000 | > 10 | – | – | CC(C)S(=O)(=O)c1[nH]c(-c2ccccc2)nc1S(=O)(=O)c1ccc(F)cc1 [BC19581]
57 | 1000 to 10000 | > 10 | – | – | CC(C)C[S+]([O-])c1[nH]c(-c2ccccc2)nc1S(=O)(=O)c1ccc(F)cc1 (stereo not shown) [BC19582]
58 | > 10000 | > 10 | – | – | O=S(=O)(c1ccc(Cl)cc1)c1nc(-c2cccc(F)c2)sc1S(=O)(=O)C1CCCCC1 [BC19583]
59 | 1000 to 10000 | > 10 | – | – | CC(C)[S+]([O-])c1[nH]c(-c2ccccc2)nc1S(=O)(=O)c1ccc(Cl)cc1 (stereo not shown) [BC19584]
60 | 1000 to 10000 | > 10 | – | – | CCC[S+]([O-])c1[nH]c(-c2ccccc2)nc1S(=O)(=O)c1ccc(F)cc1 (stereo not shown) [BC19585]
61 | 1000 to 10000 | > 10 | – | – | O=S(=O)(c1ccc(F)cc1)c1nc(-c2ccccc2)[nH]c1[S+]([O-])C1CCCCC1 (stereo not shown) [BC19586]
62 | 1000 to 10000 | 1 to 10 | – | – | COCCS(=O)(=O)c1sc(-c2cccc(F)c2)nc1S(=O)(=O)c1ccc(F)cc1 [BC19587]
63 | 1000 to 10000 | > 10 | – | – | CC(C)C[S+]([O-])c1sc(-c2cccc(F)c2)nc1S(=O)(=O)c1ccc(F)cc1 (stereo not shown) [BC19588]
64 | 1000 to 10000 | 1 to 10 | – | – | CCCS(=O)(=O)c1sc(-c2cccc(F)c2)nc1S(=O)(=O)c1ccc(F)cc1 [BC19589]
65 | 1000 to 10000 | 1 to 10 | – | – | CCC[S+]([O-])c1sc(-c2cccc(F)c2)nc1S(=O)(=O)c1ccc(F)cc1 (stereo not shown) [BC19590]

— patent US12606528B2, “Methods and materials for inhibiting NF-kB activity” (University of Pittsburgh - Of the Commonwealth System of …, priority 2019, dated 2026)
